The structures appear in SMILES notation. Where a SMILES comes first, the peptide text is derived from it. The star is where a group is joined. C16 diacid = O=C(O)CCCCCCCCCCCCCCC(=O)*

The values below come from paper PMC9544171, “Glucose‐dependent insulinotropic polypeptide receptor antagonist treatment causes a reduction in weight gain in ovariectomised high fat diet‐fed mice” (British Journal of Pharmacology, 2022).

The target in test [1] is T1, mouse GLP‐2 receptor (Mus musculus, UniProt Q5IXF8).
T1 construct: host or cells: COS-7
T1 sequence (Q5IXF8 1-512): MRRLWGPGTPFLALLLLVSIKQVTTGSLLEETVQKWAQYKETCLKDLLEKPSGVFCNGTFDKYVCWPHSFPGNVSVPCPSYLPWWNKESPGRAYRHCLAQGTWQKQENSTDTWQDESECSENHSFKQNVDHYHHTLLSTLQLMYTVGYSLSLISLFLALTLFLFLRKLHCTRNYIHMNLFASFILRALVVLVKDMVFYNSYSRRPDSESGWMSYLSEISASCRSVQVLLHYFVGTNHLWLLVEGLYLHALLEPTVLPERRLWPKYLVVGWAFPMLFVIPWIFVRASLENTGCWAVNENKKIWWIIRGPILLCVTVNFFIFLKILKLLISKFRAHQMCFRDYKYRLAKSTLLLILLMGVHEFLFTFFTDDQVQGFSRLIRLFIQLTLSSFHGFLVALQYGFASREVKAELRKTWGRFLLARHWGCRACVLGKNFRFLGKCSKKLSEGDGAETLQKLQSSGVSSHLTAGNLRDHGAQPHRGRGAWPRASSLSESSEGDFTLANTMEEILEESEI
Description: cAMP accumulation, agonism in transfected COS‐7 cells. The test is classed as cell-based. As to conditions: increasing concentrations, COS‐7, n = 5. As to the method:
COS‐7 cells were cultured at 10% CO2 and 37°C in Dulbecco's Modified Eagle Medium 1885 supplemented with 10% foetal bovine serum, 2‐mM glutamine, 180‐units ml^−1 penicillin and […] streptomycin. Transient transfection of the cells with either human or mouse GIP receptor was performed using the calcium phosphate precipitation method as previously described (van der Velden et al., [2021]). A second set of cells was transiently transfected with either mouse GLP‐1 or GLP‐2 receptor. Following the day after transfection, the cells were seeded in white 96‐well plates with a density of 35.000 cells per well. The next day the assay was initiated by washing the cells with HEPES buffered saline (HBS) followed by an incubation step with HBS and 1‐mM 3‐isobutyl‐1‐methylxanthine for 30 min at 37°C. For agonist studies, the ligands were then added and incubated for an additional 30 min at 37°C. To test for antagonistic properties, the cells were first preincubated for 10 min with the antagonist with subsequent addition of the agonist and incubated for an additional 20 min. The HitHunter® cAMP assay (Eurofins DiscoverX, Fremont, USA) was carried out according to the manufacturer's protocol. Luminescence was measured by PerkinElmer™ Envision 2014 Multilabel Reader.
FIGURE 2 In vitro signalling profile of mGIPAnt‐1 on the mouse GLP‐1 and GLP‐2 receptor (R). […]

For test [2], the target named is T2, mouse GLP‐1 receptor (Mus musculus, UniProt O35659).
T2 construct: host or cells: COS-7
T2 sequence (O35659 22-463): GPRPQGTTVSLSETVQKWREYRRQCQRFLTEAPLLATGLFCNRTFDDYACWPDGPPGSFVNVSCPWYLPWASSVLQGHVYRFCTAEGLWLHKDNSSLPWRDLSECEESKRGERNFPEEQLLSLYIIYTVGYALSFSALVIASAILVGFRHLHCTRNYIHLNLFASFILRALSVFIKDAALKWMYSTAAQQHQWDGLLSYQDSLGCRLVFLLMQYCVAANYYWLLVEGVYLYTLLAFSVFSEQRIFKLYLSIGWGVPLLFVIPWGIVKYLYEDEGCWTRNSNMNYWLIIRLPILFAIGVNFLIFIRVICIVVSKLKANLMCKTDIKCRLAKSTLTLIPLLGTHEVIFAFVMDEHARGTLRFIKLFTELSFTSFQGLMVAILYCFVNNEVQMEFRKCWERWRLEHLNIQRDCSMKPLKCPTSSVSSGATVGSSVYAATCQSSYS
The test is described as above. The test is classed as cell-based. As to conditions: increasing concentrations, COS‐7, n = 5.
Description: COS‐7 cells were cultured at 10% CO2 and 37°C in Dulbecco's Modified Eagle Medium 1885 supplemented with 10% foetal bovine serum, 2‐mM glutamine, 180‐units ml^−1 penicillin and 45‐g·ml^−1 streptomycin. […] A second set of cells was transiently transfected with either mouse GLP‐1 or GLP‐2 receptor. Following the day after transfection, the cells were seeded in white 96‐well plates with a density of 35.000 cells per well. The next day the assay was initiated by washing the cells with HEPES buffered saline (HBS) followed by an incubation step with HBS and 1‐mM 3‐isobutyl‐1‐methylxanthine for 30 min at 37°C. For agonist studies, the ligands were then added and incubated for an additional 30 min at 37°C. To test for antagonistic properties, the cells were first preincubated for 10 min with the antagonist with subsequent addition of the agonist and incubated for an additional 20 min. The HitHunter® cAMP assay (Eurofins DiscoverX, Fremont, USA) was carried out according to the manufacturer's protocol. Luminescence was measured by PerkinElmer™ Envision 2014 Multilabel Reader.
COS‐7 cells were transiently transfected with (a) mouse GLP1‐R and (b) mouse GLP‐2 R and assayed for cAMP accumulation. […] Data are shown as mean ± SE from n = 5 independent experiments

Test [3] relates to Female C57Bl6/J mice. Description: Intraperitoneal glucose tolerance test, inhibition of exogenous GIP. The test is classed as in vivo, mouse. As to the method: To assess the biological activity of mGIPAnt‐1, we performed an intraperitoneal glucose tolerance test. Mice were fasted for 4 h and given either mGIPAnt‐1 ([…]; s.c.) or vehicle at t = −90 min. Group sizes were as follows:‐ Vehicle + Vehicle, n = 10, Vehicle + GIP, n = 12 and mGIPAnt‐1 + GIP, n = 8. Varying group numbers were due to unsuccessful administration of one of the four compounds as confirmed by measurements of plasma concentrations. At t = −10 all mice were given an intraperitoneal (i.p.) injection with dipeptidyl peptidase‐4 (DPP‐4) inhibitor valine pyrrolidide followed by s.c. injection of either 25 nmol·kg^−1 GIP (Synthetic mouse GIP(1‐42) or vehicle. At t = 0 min, mice received an i.p. injection with 0.5‐g·kg^−1 glucose. Blood glucose was measured from the tail vein using a hand‐held glucometer (Accu‐Chek Mobile, Roche, Basel, Switzerland) at t = 0, 10, 30, 45, 60, 120 and 180 min. Retro‐orbital blood samples (50 μl) were taken using EDTA coated glass capillaries (Vitrex, Vasekær, Denmark) at t = 0, 15, 30 and 60, 120 and 180 min and centrifuged at 3500g, 20 min, 4°C. Plasma was transferred into Eppendorf tubes on dry ice and stored at −20°C for later insulin measurements.
To facilitate comparisons of assay outputs (cAMP assays), the results (of duplicate measurements) were normalized, with the response to 10 pM of GIP(1‐42) set as 100%. All ligand concentrations are reported as log‐transformed. The IC50 log values can be found in Figure 1. In Figure 3c, we have subtracted glucose levels from baseline to show the net differences in glucose levels in our different treatment groups.

On to `CC[C@H](C)[C@H](NC(=O)[C@H](CO)NC(=O)[C@H](Cc1ccc(O)cc1)NC(=O)[C@H](CC(=O)O)NC(=O)[C@H](CO)NC(=O)[C@@H](NC(=O)[C@H](Cc1ccccc1)NC(=O)[C@@H](NC(=O)CNC(=O)[C@@H](N)CCC(=O)O)[C@@H](C)O)[C@@H](C)CC)C(=O)N[C@@H](C)C(=O)N[C@@H](CCSC)C(=O)N[C@@H](CC(=O)O)C(=O)N[C@@H](CCCCN)C(=O)N[C@H](C(=O)N[C@@H](CCCCNC(=O)CCCCCCCCCCCCCCC(=O)O)C(=O)N[C@@H](CCC(N)=O)C(=O)N[C@@H](CCC(N)=O)C(=O)N[C@@H](CC(=O)O)C(=O)N[C@@H](Cc1ccccc1)C(=O)N[C@H](C(=O)N[C@@H](CC(N)=O)C(=O)N[C@@H](Cc1c[nH]c2ccccc12)C(=O)N[C@@H](CC(C)C)C(=O)N[C@@H](CC(C)C)C(=O)N[C@@H](C)C(=O)N[C@@H](CCC(N)=O)C(=O)N[C@@H](CCCCN)C(=O)NCC(=O)N[C@@H](CCCCN)C(=O)N[C@@H](CCCCN)C(=O)N[C@@H](CC(N)=O)C(=O)N[C@@H](CC(=O)O)C(=O)N[C@@H](Cc1c[nH]c2ccccc12)C(=O)N[C@@H](CCCCN)C(=O)N[C@@H](Cc1c[nH]cn1)C(=O)N[C@@H](CC(N)=O)C(=O)O)C(C)C)[C@@H](C)CC` [mGIPAnt‐1] (H-EGTFISDYSIAMDKIK(C16 diacid)QQDFVNWLLAQKGKKNDWKHN-OH), for which, in test [1], the “activation of mouse GLP‐2 receptor (cAMP)” value is recorded as “does not induce activation”. Besides, in test [2], the “activation of mouse GLP‐1 receptor (cAMP)” value was “does not induce activation”. In test [3] (mGIPAnt‐1 25 μmol·kg−1 s.c. at t = −90 min, 4 h fasted mice, versus the other two groups), the “fasting (baseline) blood glucose at t = 0 of IPGTT” value is given as “significant decrease in fasting blood glucose levels”. Moreover, in test [3] (mGIPAnt‐1 25 μmol·kg−1 s.c. t = −90 min, GIP 25 nmol·kg−1 s.c. and val‐pyr t = −10 min, glucose 0.5 g·kg−1 i.p., n = 8–12), the “baseline‐subtracted glucose curve during IPGTT” value is recorded as “did not differ”. Further, the “glucose levels relative to baseline late in IPGTT” value in test [3] (t = 120 and 180 min, same dosing as glucose curve) was “glucose levels do not drop below baseline”.
